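Cultured in 96-well plates, cells were exposed to test compound for 48 hours across five concentrations. At the GI50, growth is halved.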 Activity calls are given as the source filed them. Rule as the data show it: active = GI50 up to about 1.1 µM and inactive = higher. Starred links: 1 amine or outer side, 2 acyl side, 3 side chain; linkers in the order of their positions; H or OH if unused. Non-standard residues stand in square brackets, D forms with d. Residues, ends and D or L forms follow the SMILES beside them. *: point of attachment. X47 = CCC(=O)CC1CC(C)CC(C(=O)[*:2])N1[*:1]; X46 = CCCCCCCCC(C)C(=O)*; Aib = CC(C)(N)C(=O)O; X48 = CC(CN(C)CCO)N* Some results are limits rather than exact numbers.

Assay in all cases: NCI tumour cell line growth inhibition, 48 h
In test [1] the test system is A498.
Test [2] deals with ACHN.
Test [3] concerns CCRF-CEM.
Test [4] concerns DU-145.
In test [5] the test system is EKVX.
Test [6] has as its system HOP-62.
In test [7] the test system is Hs-578T.
Test [8] relates to IGROV-1.
The subject of test [9] is MCF7.
The test system of test [10] is MDA-MB-435.
In test [11] the test system is MDA-N.
The subject of test [12] is NCI-H460.
For test [13], the system named is OVCAR-8.
Test [14] concerns RPMI-8226.
The subject of test [15] is SF-295.
Test [16] concerns TK-10.
In test [17] the test system is U-251.
Test [18] deals with UACC-257.

Take `Oc1ccc(/C=N/c2ccccc2O)cc1`: the GI50 is > 100 µM (inactive) in test [1]; 60.7 µM (inactive) in [2]; 44.7 µM (inactive) in test [3]; 17 µM (inactive) in test [4]; 48 µM (inactive) in test [5]; 67 µM (inactive) in [6]. The GI50 in [7] was 37.2 µM (inactive); in [8], 54.7 µM (inactive); in [9] it was 27.4 µM (inactive); in [10], 16.9 µM (inactive); in test [11], 18.3 µM (inactive); in test [12], 38.9 µM (inactive). Besides, the GI50 in test [13] is 39.4 µM (inactive); in test [14] it was 22.5 µM (inactive); in test [15] it was 52.2 µM (inactive); in test [16] it was 59.7 µM (inactive); in [17] it was 31.3 µM (inactive); in [18], 22.3 µM (inactive).

Consider `CSC1(SC2=NCCN2)SC2(NCCN2)S1`, for which the GI50 in test [1] was 12.6 µM (inactive); in test [2] it was 19 µM (inactive); in test [3] it was 1.21 µM (inactive); in test [4], 14.8 µM (inactive); in [5], 20.3 µM (inactive); in test [6], 17.5 µM (inactive). Further, the GI50 in [7] is 24.3 µM (inactive); in test [8], 18.6 µM (inactive); in test [9] it was 3.18 µM (inactive); in [10] it was 15.4 µM (inactive); in test [11], 20.5 µM (inactive); in test [12] it was 20.5 µM (inactive). Moreover, the GI50 is 19.7 µM (inactive) in test [13]; 2.77 µM (inactive) in [14]; 27.8 µM (inactive) in test [15]; 6.34 µM (inactive) in test [16]; 17.9 µM (inactive) in [17]; 20.6 µM (inactive) in [18].

With `COc1ccc(/C=C/c2cc(O)cc(OC3OC(CO)C(O)C(O)C3O)c2)cc1O` (stereo not drawn), the GI50 in test [1] is > 100 µM (inactive); in test [2], 14.8 µM (inactive); in test [3] it was 82.4 µM (inactive); in test [4], 37.8 µM (inactive); in [5] it was > 100 µM (inactive); in test [6], 37 µM (inactive). Besides, the GI50 was > 100 µM (inactive) in [7]; 66.2 µM (inactive) in test [8]; > 100 µM (inactive) in test [9]; 82.4 µM (inactive) in test [10]; > 100 µM (inactive) in [11]; > 100 µM (inactive) in test [12]. Besides, the GI50 in [13] was > 100 µM (inactive); in test [14], 78.7 µM (inactive); in test [15], 51.8 µM (inactive); in [16], > 100 µM (inactive); in test [17], > 100 µM (inactive); in [18], > 100 µM (inactive).

As for `CC(C)(C)OC(=O)CC(NC(=O)OC(C)(C)C)C(=O)NC(C(=O)O)C(O)c1ccccc1` (stereo not drawn), the GI50 in [1] was > 100 µM (inactive); in [2] it was > 100 µM (inactive); in [3], 51.4 µM (inactive); in test [4], > 100 µM (inactive); in test [5], > 100 µM (inactive); in test [6] it was > 100 µM (inactive). For the same compound, the GI50 in [7] is 70.8 µM (inactive); in test [8], > 100 µM (inactive); in test [9], 37.6 µM (inactive); in test [10], > 100 µM (inactive); in test [11] it was > 100 µM (inactive); in test [12] it was 69.7 µM (inactive). The GI50 in test [13] was > 100 µM (inactive); in test [14] it was 70.1 µM (inactive); in test [15] it was > 100 µM (inactive); in test [16], > 100 µM (inactive); in [17], 77.6 µM (inactive); in test [18], > 100 µM (inactive).

With `CO[C@H]1C[C@H](O[C@H]2CC[C@@]3(C)[C@H](CC[C@@H]4[C@@H]3CC[C@]3(C)[C@@H](C5=CC(=O)OC5)CC[C@]43O)C2)O[C@H](C)[C@H]1O`, the GI50 is 0.0113 µM (active) in [1]; < 0.01 µM (active) in test [2]; < 0.01 µM (active) in [3]; < 0.01 µM (active) in [4]; < 0.01 µM (active) in test [5]; < 0.01 µM (active) in test [6]. Besides, the GI50 in test [7] is < 0.01 µM (active); in test [8] it was < 0.01 µM (active); in test [9], < 0.01 µM (active); in test [10], < 0.0111 µM (active); in test [11], < 0.01 µM (active); in [12], < 0.01 µM (active). Further, the GI50 in test [13] is < 0.01 µM (active); in test [14] it was < 0.01 µM (active); in [15], < 0.01 µM (active); in test [16], < 0.0246 µM (active); in [17], < 0.01 µM (active); in test [18], < 0.0137 µM (active).

Turning to `Nc1nc(N)nc(CC(=O)O)n1`, the GI50 in test [1], in test [2], in test [3], in [4], in [5] and in [6] was > 100 µM (inactive) each time. For the same compound, the GI50 in [7], in test [8], in test [9], in [10], in test [11] and in test [12] was > 100 µM (inactive) throughout. Also, the GI50 in test [13], in [14], in test [15], in [16], in [17] and in test [18] was > 100 µM (inactive) in each case.

`O=C1c2ccccc2-n2nnnc2C2CSCN12` (stereo not drawn): the GI50 in test [1], in test [2], in [3], in test [4], in test [5] and in test [6] was > 100 µM (inactive) in each case. For the same compound, the GI50 in test [7], in [8], in [9], in [10], in [11] and in test [12] was > 100 µM (inactive) each time. Also, the GI50 in test [13], in [14], in test [15], in test [16], in test [17] and in test [18] was > 100 µM (inactive) each time.

Regarding `COC(=O)CNS(=O)(=O)c1ccc(-c2c3nc(c(-c4ccc(S(=O)(=O)NCC(=O)OC)cc4)c4ccc([nH]4)c(-c4ccc(S(=O)(=O)NCC(=O)OC)cc4)c4nc(c(-c5ccc(S(=O)(=O)NCC(=O)OC)cc5)c5ccc2[nH]5)C=C4)C=C3)cc1`, the GI50 in test [1] is 64.9 µM (inactive); in test [2], > 100 µM (inactive); in test [3], > 100 µM (inactive); in test [4], > 100 µM (inactive); in test [5], > 100 µM (inactive); in test [6], > 100 µM (inactive). Further, the GI50 in [7], in [8], in test [9], in [10], in [11] and in test [12] was > 100 µM (inactive) each time. The GI50 in test [13] was > 100 µM (inactive); in test [14], > 100 µM (inactive); in [15], > 100 µM (inactive); in test [16], > 100 µM (inactive); in test [17], 82.6 µM (inactive); in test [18], > 100 µM (inactive).

Consider `COc1ccc(C(SCCO)(c2ccccc2)c2ccc(OC)cc2)cc1`, for which the GI50 in test [1] was 13.9 µM (inactive); in test [2], 16 µM (inactive); in [3], 12.6 µM (inactive); in test [4], 15.5 µM (inactive); in test [5], 13.2 µM (inactive); in test [6], 15.8 µM (inactive). The GI50 in test [7] was 11.1 µM (inactive); in test [8] it was 16.8 µM (inactive); in [9], 5.36 µM (inactive); in test [10], 5.65 µM (inactive); in test [11], 5.32 µM (inactive); in test [12], 4.61 µM (inactive). The GI50 was 19.2 µM (inactive) in [13]; 24.9 µM (inactive) in [14]; 4.36 µM (inactive) in test [15]; 18.1 µM (inactive) in test [16]; 4.46 µM (inactive) in test [17]; 14.7 µM (inactive) in [18].

Regarding `CCCNC(=O)NNC(=O)c1c[nH]c2nc(C)ccc2c1=O`, the GI50 in [1], in test [2], in [3], in test [4], in [5] and in test [6] was > 100 µM (inactive) throughout. For the same compound, the GI50 in [7], in test [8], in [9], in test [10], in [11] and in [12] was > 100 µM (inactive) each time. The GI50 in test [13], in test [14], in test [15], in [16], in test [17] and in test [18] was > 100 µM (inactive) in each case.

Take `CCCCCCCCC(C)C(=O)N1CCCC1C(=O)N1C(CC(=O)CC)CC(C)CC1C(=O)NC(C)C(=O)NC(C)(C)C(=O)NC(C)(C)C(=O)NC(C(=O)NC(C)C(=O)NC(C)(C)C(=O)NC(C)(C)C(=O)NC(C)CN(C)CCO)C(C)CC` (stereo not drawn) (X46-P[X47]A[Aib][Aib]IA[Aib][Aib]-X48; configuration not given here): the GI50 is 2 µM (inactive) in test [1]; 0.0368 µM (active) in [2]; < 0.0183 µM (active) in test [3]; 0.0847 µM (active) in [4]; < 0.01 µM (active) in test [5]; 0.116 µM (active) in test [6]. The GI50 is 0.168 µM (active) in test [7]; 0.221 µM (active) in test [8]; < 0.01 µM (active) in [9]; 1.41 µM (inactive) in [10]; 1.17 µM (inactive) in [11]; 0.0204 µM (active) in test [12]. Besides, the GI50 is < 0.01 µM (active) in test [13]; < 0.0181 µM (active) in test [14]; < 0.01 µM (active) in test [15]; 0.09 µM (active) in test [16]; < 0.0498 µM (active) in test [17]; < 0.01 µM (active) in [18].

Values taken from ChEMBL document CHEMBL1201862, “PubChem BioAssay data set” (2004).
